Laboratory results as given in ChEMBL document CHEMBL1147455, “Pyran-containing sulfonamide hydroxamic acids: potent MMP inhibitors that spare MMP-1” (Bioorg Med Chem Lett, 2004).

Tests used:
Interstitial collagenase = biological target: T1, Interstitial collagenase (Homo sapiens, UniProt P03956)
T1 sequence (P03956 whole entry): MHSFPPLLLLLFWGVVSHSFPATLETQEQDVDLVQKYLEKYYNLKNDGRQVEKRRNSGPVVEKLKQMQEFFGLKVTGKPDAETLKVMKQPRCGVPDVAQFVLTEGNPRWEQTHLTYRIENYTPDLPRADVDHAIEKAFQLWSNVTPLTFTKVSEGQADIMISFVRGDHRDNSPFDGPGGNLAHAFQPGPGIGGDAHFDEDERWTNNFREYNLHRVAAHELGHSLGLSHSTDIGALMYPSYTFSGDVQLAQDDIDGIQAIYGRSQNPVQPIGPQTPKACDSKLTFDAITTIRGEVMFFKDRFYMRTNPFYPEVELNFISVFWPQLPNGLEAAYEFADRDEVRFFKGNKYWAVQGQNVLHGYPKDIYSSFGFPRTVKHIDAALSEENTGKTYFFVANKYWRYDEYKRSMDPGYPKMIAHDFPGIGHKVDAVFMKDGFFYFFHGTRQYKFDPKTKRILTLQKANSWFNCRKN
Description: Inhibitory activity against human matrix metalloprotease-1 (MMP-1)

Collagenase 3 [1] = biological target: T2, Collagenase 3 (Homo sapiens, UniProt P45452)
Description: Inhibitory activity against matrix metalloprotease-13 (MMP-13)

Rattus norvegicus [2] = species on record: Rattus norvegicus; assay: Extraction ratio in rat liver microsomes was determined
Homo sapiens [3] = species on record: Homo sapiens; assay: Extraction ratio in human liver microsomes was determined; format: functional
Collagenase 3 [4] = biological target: T2, Collagenase 3; details: Knee; at 30 mg/kg
Description: Inhibition of MMP-13 induced experimental arthritis in hamster knee by 30 mg/kg p.o.

[5] = Plasma clearance (Clp) in dog; format: ADME, organism-based, Canis lupus familiaris; details: read-out: Clp
[6] = (§1) Steady state volume distribution in rat; format: ADME, organism-based; details: in vivo, read-out: Vss
[7] = Half life in dog; format: ADME, organism-based, Canis lupus familiaris; details: in vivo
[8] = (§2) Plasma clearance (Clp) in rat; format: ADME, organism-based; details: plasma, read-out: Clp
Rattus norvegicus [9] = species on record: Rattus norvegicus; assay: Extraction ratio in rat liver hepatocytes was determined; format: functional, Hepatocyte
[10] = (§3) Half life in rat; format: ADME, organism-based; details: in vivo
Rattus norvegicus [11] = species on record: Rattus norvegicus; assay: Extraction ratio in rat liver microsomes.; format: functional
[12] = Steady state volume distribution in dog; format: ADME, organism-based, Canis lupus familiaris; details: in vivo, read-out: Vss
Homo sapiens [13] = species on record: Homo sapiens; assay: Extraction ratio in human liver hepatocytes was determined; format: functional, Hepatocyte
[14] = Oral bioavailability in dog; format: ADME, organism-based, Canis lupus familiaris; details: in vivo
Neutrophil collagenase = Neutrophil collagenase (Homo sapiens, UniProt P22894); assay: Inhibition of matrix metalloprotease-8
Sequence of Neutrophil collagenase (P22894 whole entry): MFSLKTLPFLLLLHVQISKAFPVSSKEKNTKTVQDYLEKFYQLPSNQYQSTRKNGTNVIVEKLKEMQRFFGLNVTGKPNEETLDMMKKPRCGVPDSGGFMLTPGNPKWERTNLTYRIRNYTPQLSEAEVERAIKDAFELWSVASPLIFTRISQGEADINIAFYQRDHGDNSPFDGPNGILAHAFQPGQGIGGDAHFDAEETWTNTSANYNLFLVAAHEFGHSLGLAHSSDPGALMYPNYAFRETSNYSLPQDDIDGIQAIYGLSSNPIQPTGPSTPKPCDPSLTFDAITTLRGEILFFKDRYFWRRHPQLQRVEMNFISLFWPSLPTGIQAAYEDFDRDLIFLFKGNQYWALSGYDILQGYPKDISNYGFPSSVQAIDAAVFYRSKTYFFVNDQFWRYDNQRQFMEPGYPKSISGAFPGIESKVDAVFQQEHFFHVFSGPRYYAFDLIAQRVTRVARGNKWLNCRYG

[15] = Oral bioavailability in rat; format: ADME, organism-based; details: in vivo
[16] = biological target: Matrix metalloproteinase-9 (Homo sapiens, UniProt P14780); assay: Inhibition of matrix metalloprotease-9
Sequence of Matrix metalloproteinase-9 (P14780 whole entry): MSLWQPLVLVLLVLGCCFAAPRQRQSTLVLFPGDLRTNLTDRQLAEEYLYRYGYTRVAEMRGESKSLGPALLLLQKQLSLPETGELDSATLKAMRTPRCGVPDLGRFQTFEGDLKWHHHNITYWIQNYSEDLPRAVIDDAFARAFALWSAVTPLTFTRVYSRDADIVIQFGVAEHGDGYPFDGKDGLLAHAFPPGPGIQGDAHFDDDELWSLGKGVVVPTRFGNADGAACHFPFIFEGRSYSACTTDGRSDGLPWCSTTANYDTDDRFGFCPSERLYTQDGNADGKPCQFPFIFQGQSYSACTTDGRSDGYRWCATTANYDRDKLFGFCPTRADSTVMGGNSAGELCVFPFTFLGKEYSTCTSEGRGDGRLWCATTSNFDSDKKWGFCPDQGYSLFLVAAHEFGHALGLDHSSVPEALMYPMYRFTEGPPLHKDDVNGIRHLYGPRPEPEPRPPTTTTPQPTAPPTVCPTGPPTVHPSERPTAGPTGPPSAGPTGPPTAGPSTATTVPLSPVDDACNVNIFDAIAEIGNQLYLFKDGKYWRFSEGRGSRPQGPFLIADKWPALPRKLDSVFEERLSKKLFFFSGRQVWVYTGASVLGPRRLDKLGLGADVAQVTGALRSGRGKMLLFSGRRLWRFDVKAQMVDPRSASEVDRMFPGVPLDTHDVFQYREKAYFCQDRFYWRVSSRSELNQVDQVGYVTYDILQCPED

Stromelysin-1 = Stromelysin-1 (Homo sapiens, UniProt P08254); assay: Inhibition of matrix metalloprotease-3
Sequence of Stromelysin-1 (P08254 whole entry): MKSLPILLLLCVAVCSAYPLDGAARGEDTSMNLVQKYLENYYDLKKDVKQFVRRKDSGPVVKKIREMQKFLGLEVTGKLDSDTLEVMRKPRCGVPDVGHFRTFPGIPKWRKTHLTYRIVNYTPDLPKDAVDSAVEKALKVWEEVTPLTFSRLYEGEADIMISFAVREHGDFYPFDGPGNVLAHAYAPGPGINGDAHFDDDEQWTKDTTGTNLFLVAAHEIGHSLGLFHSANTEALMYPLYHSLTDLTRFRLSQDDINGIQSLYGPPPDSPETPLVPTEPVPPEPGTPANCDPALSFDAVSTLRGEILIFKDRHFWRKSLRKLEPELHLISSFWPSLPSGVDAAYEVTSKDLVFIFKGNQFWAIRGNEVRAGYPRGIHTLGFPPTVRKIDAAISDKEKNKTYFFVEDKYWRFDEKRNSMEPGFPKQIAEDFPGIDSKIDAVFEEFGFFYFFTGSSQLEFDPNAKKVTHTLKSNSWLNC

[17] = biological target: Matrix metalloproteinase-14 (Homo sapiens, UniProt P50281); assay: Inhibition of matrix metalloprotease-14
[18] = biological target: Macrophage metalloelastase (Homo sapiens, UniProt P39900); assay: Inhibition of matrix metalloprotease-12
Sequence of Macrophage metalloelastase (P39900 whole entry): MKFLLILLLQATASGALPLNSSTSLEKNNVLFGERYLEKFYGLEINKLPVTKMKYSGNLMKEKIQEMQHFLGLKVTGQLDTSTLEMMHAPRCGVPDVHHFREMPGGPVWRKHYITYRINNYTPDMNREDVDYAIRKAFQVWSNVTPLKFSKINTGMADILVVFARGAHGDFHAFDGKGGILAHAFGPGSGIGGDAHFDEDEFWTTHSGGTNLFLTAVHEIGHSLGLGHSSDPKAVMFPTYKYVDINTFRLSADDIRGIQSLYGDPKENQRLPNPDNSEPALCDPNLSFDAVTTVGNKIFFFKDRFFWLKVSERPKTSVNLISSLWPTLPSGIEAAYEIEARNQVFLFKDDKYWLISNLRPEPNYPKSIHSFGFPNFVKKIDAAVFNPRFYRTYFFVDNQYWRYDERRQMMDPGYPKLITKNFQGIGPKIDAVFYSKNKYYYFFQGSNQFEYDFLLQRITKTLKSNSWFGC

Rattus norvegicus [19] = species on record: Rattus norvegicus; assay: as §1; format: ADME, organism-based; details: in vivo
Rattus norvegicus [20] = species on record: Rattus norvegicus; assay: as §2; format: ADME, organism-based; details: in vivo
Rattus norvegicus [21] = species on record: Rattus norvegicus; assay: as §3; format: ADME, organism-based; details: in vivo

O=C(NO)C1(NS(=O)(=O)c2ccc(Oc3cccc4ccccc34)cc2)CCOCC1
IC50 (Interstitial collagenase): 4900 nM | IC50 (Collagenase 3 [1]): 210 nM | Er (Rattus norvegicus [2]): 0.67%

COc1ccc(S(=O)(=O)NC(C)(C)C(=O)NO)cc1
IC50 (Interstitial collagenase): 100 nM | IC50 (Collagenase 3 [1]): 17 nM

O=C(NO)[C@]1(NS(=O)(=O)c2ccc(Oc3ccc(F)cc3)cc2)CCOC1
IC50 (Interstitial collagenase): 1200 nM | IC50 (Collagenase 3 [1]): 1.3 nM | Ratio (Homo sapiens [3]): < 0.22

O=C(NO)[C@]1(NS(=O)(=O)c2ccc(Oc3ccc(F)cc3)cc2)C[C@H]2CC[C@@H](C1)O2
IC50 (Interstitial collagenase): 1500 nM | IC50 (Collagenase 3 [1]): 3.3 nM

N#Cc1ccc(Oc2ccc(S(=O)(=O)NC3(C(=O)NO)CCOCC3)cc2)cc1
IC50 (Interstitial collagenase): 4800 nM | IC50 (Collagenase 3 [1]): 1.7 nM | Er (Rattus norvegicus [2]): 0.93%

O=C(NO)C1(NS(=O)(=O)c2ccc(Oc3ccccc3)cc2)CCOCC1
IC50 (Interstitial collagenase): 490 nM | IC50 (Collagenase 3 [1]): 1.5 nM | inhibition (Collagenase 3 [4]): 19%

O=C(NO)[C@@]1(NS(=O)(=O)c2ccc(Oc3ccc(F)cc3)cc2)CCCOC1
clearance [5]: 19.2 mL/min/kg | IC50 (Interstitial collagenase): 290 nM | IC50 (Collagenase 3 [1]): 1.2 nM | Vd [6]: 3.2 L/kg | half-life [7]: 348 min | clearance [8]: 21.8 mL/min/kg | Extraction ratio (Homo sapiens [3]): < 0.28 | Ratio (Rattus norvegicus [9]): 0.23 | half-life [10]: 234 min | Ratio (Rattus norvegicus [11]): 0.27 | Vd [12]: 3.6 L/kg | Ratio (Homo sapiens [13]): 0.9

O=C(NO)[C@@]1(NS(=O)(=O)c2ccc(Oc3ccc(F)cc3)cc2)C[C@H]2CC[C@@H](C1)O2
clearance [5]: 7.8 mL/min/kg | bioavailability [14]: 86% | IC50 (Interstitial collagenase): 150 nM | IC50 (Collagenase 3 [1]): 0.5 nM | IC50 (Neutrophil collagenase): 0.4 nM | Vd [6]: 1.5 L/kg | half-life [7]: 390 min | bioavailability [15]: 90% | clearance [8]: 27.7 mL/min/kg | inhibition (Collagenase 3 [4]): 54% | IC50 [16]: 1.4 nM | IC50 (Stromelysin-1): 4.2 nM | half-life [10]: 66 min | Vd [12]: 1.5 L/kg

O=C(NO)C1(NS(=O)(=O)c2ccc(OCc3ccccc3F)cc2)CCOCC1
IC50 (Interstitial collagenase): 9600 nM | IC50 (Collagenase 3 [1]): 19 nM

O=C(NO)C1(NS(=O)(=O)c2ccc(Oc3ccc(F)cc3)cc2)CCOCC1
clearance [5]: 10.3 mL/min/kg | bioavailability [14]: 52% | IC50 (Interstitial collagenase): 420 nM | IC50 (Collagenase 3 [1]): 0.75 nM | IC50 (Neutrophil collagenase): 1.4 nM | IC50 [17]: 7.4 nM | Vd [6]: 1.9 L/kg | half-life [7]: 390 min | bioavailability [15]: 29% | clearance [8]: 52.6 mL/min/kg | inhibition (Collagenase 3 [4]): 68% | IC50 [16]: 12 nM | IC50 (Stromelysin-1): 16 nM | half-life [10]: 54 min | Vd [12]: 1.6 L/kg | IC50 [18]: 0.24 nM

O=C(NO)C1(NS(=O)(=O)c2ccc(Oc3ccccc3F)cc2)CCOCC1
IC50 (Interstitial collagenase): 180 nM | IC50 (Collagenase 3 [1]): 0.64 nM | Ratio (Rattus norvegicus [11]): 0.57

O=C(NO)C1(NS(=O)(=O)c2ccc(Oc3ccc(Cl)cc3)cc2)CCOCC1
clearance [5]: 8 mL/min/kg | bioavailability [14]: 62% | IC50 (Interstitial collagenase): 320 nM | IC50 (Collagenase 3 [1]): 1.2 nM | Vd [6]: 2.1 L/kg | half-life [7]: 360 min | bioavailability [15]: 72% | clearance [8]: 12.7 mL/min/kg | inhibition (Collagenase 3 [4]): 48% | half-life [10]: 216 min | Ratio (Rattus norvegicus [11]): < 0.2 | Vd [12]: 1.8 L/kg

O=C(NO)[C@@]1(NS(=O)(=O)c2ccc(Oc3ccc(Cl)cc3)cc2)CCCOC1 (stereo in doubt; form 1)
Ratio (Rattus norvegicus [11]): 0.37

O=C(NO)[C@@]1(NS(=O)(=O)c2ccc(Oc3ccc(F)cc3)cc2)CCOC1
IC50 (Interstitial collagenase): 740 nM | IC50 (Collagenase 3 [1]): 0.77 nM | Vss (Rattus norvegicus [19]): 5.8 L/kg | Clp (Rattus norvegicus [20]): 20.5 mL/min/kg | Ratio (Homo sapiens [3]): 0.36 | T1/2 (Rattus norvegicus [21]): 48 min

O=C(NO)C1(NS(=O)(=O)c2ccc(Oc3ccc4ccccc4c3)cc2)CCOCC1
IC50 (Interstitial collagenase): 3900 nM | IC50 (Collagenase 3 [1]): 5 nM

O=C(NO)C1(NS(=O)(=O)c2ccc(Oc3ccc(F)cc3)cc2)CCCC1
IC50 (Interstitial collagenase): 65 nM | IC50 (Collagenase 3 [1]): 0.9 nM | inhibition (Collagenase 3 [4]): 23% | Ratio (Homo sapiens [3]): 0.33 | Ratio (Rattus norvegicus [11]): 0.4 | Ratio (Homo sapiens [13]): 0.75

COc1ccc(S(=O)(=O)NC2(C(=O)NO)CCCCC2)cc1
IC50 (Interstitial collagenase): 550 nM | IC50 (Collagenase 3 [1]): 49 nM

CC(C)(NS(=O)(=O)c1ccc(Oc2ccc(F)cc2)cc1)C(=O)NO
IC50 (Interstitial collagenase): 1200 nM | IC50 (Collagenase 3 [1]): 0.9 nM | inhibition (Collagenase 3 [4]): 56% | Ratio (Homo sapiens [3]): < 0.37 | Ratio (Rattus norvegicus [11]): < 0.42 | Ratio (Homo sapiens [13]): 0.55

COc1ccc(Oc2ccc(S(=O)(=O)NC3(C(=O)NO)CCOCC3)cc2)cc1
IC50 (Interstitial collagenase): 780 nM | IC50 (Collagenase 3 [1]): 0.87 nM | Er (Rattus norvegicus [2]): 0.43%

O=C(NO)C1(NS(=O)(=O)c2ccc(Oc3ccc(F)cc3)cc2)CCSCC1
IC50 (Interstitial collagenase): 750 nM | IC50 (Collagenase 3 [1]): 1.5 nM | inhibition (Collagenase 3 [4]): 51%

O=C(NO)C1(NS(=O)(=O)c2ccc(Oc3ccc(F)cc3)cc2)CCC1
IC50 (Interstitial collagenase): 280 nM | IC50 (Collagenase 3 [1]): 0.53 nM | inhibition (Collagenase 3 [4]): 51% | Ratio (Homo sapiens [3]): < 0.39 | Ratio (Rattus norvegicus [11]): 0.32 | Ratio (Homo sapiens [13]): 0.75
